# Experimental data as given in PubChem BioAssay AID488890 (Southern Research Specialized Biocontainment Screening …, 2010).
# Results filed as inconclusive are left out. Activity calls are given as the source filed them. How the calls were made is not given here.
# Tested on: Mycobacterium tuberculosis non-replicating, growth inhibition
# Experiment: growth inhibition of non-replicating M. tuberculosis (AID 488890)
row,Compound,IC50
1,CCCOc1ccc(N2C(=O)CC(N3CCCC(C(=O)N4CCCC4)C3)C2=O)cc1 (configuration not stated),30.1 µM (inactive)
2,COc1cccc(/C=N/NC(=O)c2ccoc2C)c1O,1.93 µM
3,Cc1ccc2oc(=O)c3cc(C(=O)NCCCN4CCCCCC4)sc3c2c1,15.8 µM (inactive)
4,CCc1ccc(/C=N/NC(=O)c2ccccn2)cc1,24.8 µM (inactive)
5,N#Cc1ccc(N=c2ssnc2Cl)cc1,18.1 µM (inactive)
6,CC(=O)c1ccc(NC(=O)CCc2ccc(C)o2)cc1,25.8 µM (inactive)
7,Cn1c(/C=C/c2ccc([N+](=O)[O-])o2)nc2ccccc2c1=O,< 0.1 µM
8,Cc1cc(C)n(C(=O)c2ccc([N+](=O)[O-])cc2[N+](=O)[O-])n1,24.3 µM (inactive)
9,O=C(c1ccccc1)C1CN(Cc2ccccc2)CCC1(O)c1ccccc1 (configuration not stated),3.82 µM
10,Cc1ccc(CNC(=O)c2cnccn2)cc1,1.36 µM
11,Cc1c(Cl)cccc1NC(=O)C(=O)NNC(=O)c1ccccc1F,1.59 µM
12,CN(C(=O)COC(=O)c1ccc([N+](=O)[O-])cc1Cl)C1CCCCC1,5.88 µM
13,O=c1oc(/C=C/c2ccc([N+](=O)[O-])s2)nc2ccccc12,8.47 µM
14,O=C(N/N=C/c1ccc(OC(=O)c2cccs2)cc1)c1ccccn1,2.94 µM
15,CCCCCCCNC(=O)C1(CC2CC(c3cccc(Br)c3)=NO2)CCNCC1 (configuration not stated),13.7 µM (inactive)
16,Cc1ccc(C(=O)N/N=C\c2ccc(-c3ccc(Cl)cc3)o2)cn1,7.02 µM
17,CN1CCN(Cc2cc(C(C)(C)C)c(O)c(C(C)(C)C)c2)CC1,11.8 µM (inactive)
18,CCOC(=O)COn1c(-c2cccc(Cl)c2)nc2ccc([N+](=O)[O-])cc21,19.6 µM (inactive)
19,NC(=S)n1[nH]c(-c2ccc([N+](=O)[O-])cc2)c(N=Nc2ccc(O)cc2)c1=O,18.5 µM (inactive)

row,Compound,IC50
1,CC(=O)Oc1ccc(N(C(C)=O)S(=O)(=O)c2cccs2)c2ccccc12,11.6 µM (inactive)
2,O=c1c(=Nc2ccccc2O)c(=O)c2ccccc12,2.73 µM
3,O=C(Nc1ccc(Br)cc1)c1cc([N+](=O)[O-])cc([N+](=O)[O-])c1,2.63 µM
4,Cc1cc(OCCCn2ccnc2)ccc1C(C)C,9.17 µM
5,NC(=O)N/N=C\c1cc(Br)ccc1O,4.2 µM
6,CN1CCC(O)(c2cccs2)C(C(=O)c2cccs2)C1 (configuration not stated),2.35 µM
7,O=C(OCc1cccc(F)c1)c1ccc2c(=O)n3c(nc2c1)CCC3,8.62 µM
8,Cc1cc(NCc2ccccn2)n2nc(C)c(-c3ccc(Cl)cc3)c2n1,1.85 µM
9,CC1=NN(C(=O)COc2ccccc2C)C(O)(c2ccc(Cl)cc2)C1 (configuration not stated),1.4 µM
10,O=[N+]([O-])c1ccc(/C=N/n2c(CO)nc3ccccc32)s1,1.18 µM
11,CCCOc1ccc(-c2nc(C#N)c(NCCCn3ccnc3)o2)cc1,17 µM (inactive)
12,O=C1C(Nc2ccccc2)=C/C(=N/S(=O)(=O)c2cccs2)c2ccccc21,12 µM (inactive)
13,c1ccc(-c2nc3c(ccc4ccccc43)[nH]2)nc1,17.8 µM (inactive)
14,O=C(CCS(=O)(=O)c1ccc(F)cc1)Nc1nc(-c2ccccn2)cs1,7.41 µM
15,Cc1noc2ncnc(Sc3ccccc3Cl)c12,16.4 µM (inactive)
16,Oc1oc(-c2ccco2)nc1C=Nc1cccc(Cl)c1,7.88 µM
17,Cc1nnc(C)n1/N=C/c1cc(Br)cc(Br)c1O,11.3 µM (inactive)
18,Cc1cccc(N2CCN(Cc3ccc([N+](=O)[O-])o3)CC2)c1C,2 µM
19,CCOc1ccc(C(=O)N/N=C/c2cccc3cccnc23)cc1,4.65 µM

row,Compound,IC50
1,COc1ccc(N/N=C/c2c(C(=O)O)ccc3ccccc23)cc1,< 0.1 µM
2,CC1=CN2C(=N)/C(=C/c3ccc([N+](=O)[O-])o3)C(=O)N=C2S1,12.8 µM (inactive)
3,O=C(c1cc([N+](=O)[O-])cc([N+](=O)[O-])c1)N(Cc1nnc(-c2ccccc2Cl)o1)C1CC1,4.46 µM
4,C=CCNc1nnc(Sc2ncccc2[N+](=O)[O-])s1,4.7 µM
5,COC(=O)c1sc(NC(=O)c2ccc([N+](=O)[O-])o2)c(C#N)c1C,4.3 µM
6,OC(CNCC(c1ccc(Cl)cc1Cl)c1c[nH]c2ccccc12)c1ccccc1 (configuration not stated),10.9 µM (inactive)
7,Cc1ccccc1Nc1c(-c2ccccn2)nc2ccccn12,13.9 µM (inactive)
8,Cn1c(SCCOc2cccc(Cl)c2)nnc1-c1ccncc1,11.4 µM (inactive)
9,O=C(Nc1ncccn1)c1ccc([N+](=O)[O-])o1,8.49 µM
10,COc1ccc(C)c2sc(NC(=O)CCS(=O)(=O)c3ccccc3)nc12,6 µM
11,N=C1/C(=C\c2coc3ccccc3c2=O)C(=O)N=C2SC=CN12,21.4 µM (inactive)
12,O=C(OCC(=O)c1c[nH]c2ccccc12)c1ccc([N+](=O)[O-])s1,0.79 µM
13,Cc1ccc2nc(C)c3c(c2c1)COC3,29.8 µM (inactive)
14,CCCOc1ccc(C(=O)NNC(=S)NC(=O)c2ccco2)cc1,3.83 µM
15,COc1ccc(N2C(=O)C(F)(F)C2c2cccc(F)c2)cc1 (configuration not stated),2.15 µM
16,CN(C)CC/C=C1/c2ccc(F)cc2Sc2ccc(Cl)cc21,8.11 µM
17,CCOC(=O)c1cn(Cc2cccc(Cl)c2)nn1,8.03 µM
18,CC(=O)Oc1ccc(/C=C2\N=C(C3CCCCC3)OC2=O)cc1,9.08 µM
19,Cc1ccccc1C1=N/C(=C/c2cccnc2)C(=O)O1,19.9 µM (inactive)
